Drawing on US20230391770A1, “METTL3 INHIBITORY COMPOUNDS” (Storm Therapeutics Limited, priority 2020, published 2023), this text covers IC50 for 19 molecules.

One may read the IC50 as the concentration that gives 50% inhibition.

The target in one test is METTL3/14 (Homo sapiens (Human), UniProt Q86U44). The test can be described thus: METTL3/14 methyltransferase biochemical assay (RapidFire mass spectrometry, METTL3_14 RFMS). The method, then:
The enzymatic assay was established to determine IC50 values for inhibition of RNA methyltransferase activity. The enzyme used was full-length his-tagged METTL3 co-expressed with full length FLAG-tagged METTL14 in a baculovirus expression system. […] The reaction was incubated for further 60 minutes at room temperature, and then quenched by the addition of 40 μL 7.5% TCA with two internal product standards (D4-SAH and ^13C10-SAH). After termination, plates were sealed, centrifuged and stored at 4° C. until analysis. […] RNA methyltransferase activity was measured label free using the RapidFireTM mass spectrometry (RF/MS) platform. Stopped and stable assay plates were analyzed on the Agilent RF300 integrated autosampler/solid-phase extraction (SPE) system coupled to an ABSciex 4000 mass spectrometer for the generation of the product S-adenosyl homocysteine (SAH) and normalized to the ratio of signal of the two internal product standards, respectively. Solvent A was water containing 0.1% (v/v) TCA. Solvent B was acetonitrile/0.1% ammonium acetate (8:2, v/v).

Another test concerns Caov-3 cells. The test is described as follows: Caov3 CTG proliferation assay (CellTiter-Glo). The conditions noted are these: Homo sapiens, 120 hours treatment, 30 μM top concentration. Format: cell-based. On the procedure:
Cell treatment and cell growth assessment: 18 hours post-seeding in white 384-Viewplate (6007480, PerkinElmer) at 1500 cells/well, Caov3 cells were treated for 120 hours with compounds inhibiting the METTL3/14 activity (10 serial semi-log dilutions, 30 μM as top concentration). Upon treatment, Coav-3 cells were incubated for 10 min at RT with the CellTiter-Glo reagent (G7571, Promega). Measurement of the luminescence signal was performed on a microplate reader (Ensight, PerkinElmer).

For a further test, the system named is KASUMI-1 cells. The test can be described thus: Kasumi cell assay (CellTiter-Glo cell growth). Format: cell-based. The conditions noted are these: Homo sapiens, 120 hours treatment, 30 μM top concentration. On the procedure:
Cell culture: KASUMI-1 cells (ACC20, Leibniz-Institut DSMZ Deutsche Sammlung von Mikroorganismen und Zellkulturen GmbH) were grown in RPMI 1640 (31870-025, Gibco) supplemented with 20% fetal bovine serum (F1524, Gibco), 1 mM sodium pyruvate (11360-039, Gibco) and 2 mM Glutamax (35050-038, Gibco) in a 5% CO2 humidified incubator at 37° C.
Cell treatment and cell growth assessment: KASUMI-1 […] were seeded in ultra-low attachment 384-well culture plate (MS-9384WZ, SBio) at a final concentration of 250,000 cells/ml (35 μL/well) and treated for 120 hours with compounds inhibiting the METTL3/14 activity (10 serial semi-log dilutions, 30 μM as top concentration). Upon treatment, Kasumi1 cells were incubated for 10 min at RT with the CellTiter-Glo reagent (G7571, Promega). Measurement of the luminescence signal was performed on a microplate reader (Ensight, PerkinElmer).
(ATP-based viability assays read luminescence as a measure of living cells.)

METTL3/14, sequence (Q86U44 whole entry): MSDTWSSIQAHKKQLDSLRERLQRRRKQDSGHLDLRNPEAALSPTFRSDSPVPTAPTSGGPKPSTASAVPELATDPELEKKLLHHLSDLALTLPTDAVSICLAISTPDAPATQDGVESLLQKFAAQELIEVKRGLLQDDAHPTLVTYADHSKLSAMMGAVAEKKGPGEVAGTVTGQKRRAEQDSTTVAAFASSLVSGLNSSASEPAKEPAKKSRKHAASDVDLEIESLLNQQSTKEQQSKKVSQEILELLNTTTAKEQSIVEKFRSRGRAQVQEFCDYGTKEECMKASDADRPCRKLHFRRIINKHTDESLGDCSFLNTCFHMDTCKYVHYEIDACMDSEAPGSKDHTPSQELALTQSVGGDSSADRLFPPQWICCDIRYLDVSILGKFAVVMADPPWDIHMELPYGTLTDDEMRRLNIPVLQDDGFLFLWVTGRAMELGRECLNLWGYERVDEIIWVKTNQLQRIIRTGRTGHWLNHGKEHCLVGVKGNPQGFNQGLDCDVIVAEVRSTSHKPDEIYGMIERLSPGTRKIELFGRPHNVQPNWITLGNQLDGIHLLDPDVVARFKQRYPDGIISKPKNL
METTL3/14, sequence (Q9HCE5 whole entry partner): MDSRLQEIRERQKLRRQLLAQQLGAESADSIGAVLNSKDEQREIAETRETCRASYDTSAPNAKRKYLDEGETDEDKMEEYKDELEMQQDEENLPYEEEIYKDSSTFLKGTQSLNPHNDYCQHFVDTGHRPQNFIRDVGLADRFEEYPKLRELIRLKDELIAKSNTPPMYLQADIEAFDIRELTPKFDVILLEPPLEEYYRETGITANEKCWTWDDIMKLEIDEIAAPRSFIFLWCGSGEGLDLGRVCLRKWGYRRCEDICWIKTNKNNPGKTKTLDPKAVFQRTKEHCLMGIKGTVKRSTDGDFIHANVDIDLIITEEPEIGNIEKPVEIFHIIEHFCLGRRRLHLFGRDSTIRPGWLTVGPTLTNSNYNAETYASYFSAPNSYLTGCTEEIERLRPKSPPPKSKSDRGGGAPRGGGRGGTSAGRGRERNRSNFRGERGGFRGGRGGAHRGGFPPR

On to `c1cc2cc(-c3cn(Cc4cn5cc(CNCC6CCC6)ccc5n4)cn3)cnc2[nH]1` [Example 34, (cyclobutylmethyl)({2-[(4-{1H-pyrrolo[2,3-b]pyridin-5-yl}-1H-imidazol-1-yl)methyl]imidazo[1,2-a]pyridin-6-yl}methyl)amine], for which the values for the IC50 on METTL3/14 and in the test on Caov-3 cells were 9.34 nM and 1280 nM, respectively.

For the molecule `COc1cncc(-c2cn(Cc3cn4cc(CNCC56CC(F)(C5)C6)ccc4n3)nn2)c1` [Example 45, ({3-fluorobicyclo[1.1.1]pentan-1-yl}methyl)[(2-{[4-(5-methoxypyridin-3-yl)-1H-1,2,3-triazol-1-yl]methyl}imidazo[1,2-a]pyridin-6-yl)methyl]amine], the IC50 in the test with Caov-3 cells was 918 nM; with KASUMI-1 cells, 2520 nM.

Consider `COc1cncc(-c2cn(Cc3cn4cc(CNCC56CC(F)(C5)C6)ccc4n3)nn2)n1` [Example 44, ({3-fluorobicyclo[1.1.1]pentan-1-yl}methyl)[(2-{[4-(6-methoxypyrazin-2-yl)-1H-1,2,3-triazol-1-yl]methyl}imidazo[1,2-a]pyridin-6-yl)methyl]amine], for which the figures for the IC50 in the test on Caov-3 cells and with KASUMI-1 cells were 2440 nM and 1990 nM, respectively.

Take `Clc1cc(-c2cn(Cc3cn4cc(CNCC5CCC5)ccc4n3)nn2)c2cncn2c1` [Example 24, ({2-[(4-{6-chloroimidazo[1,5-a]pyridin-8-yl}-1H-1,2,3-triazol-1-yl)methyl]imidazo[1,2-a]pyridin-6-yl}methyl)(cyclobutylmethyl)amine]: the IC50 on METTL3/14 is 6.1 nM; in the test on Caov-3 cells it was 343 nM.

For the molecule `Fc1ncn2cccc(-c3cn(Cc4cn5cc(CNCC6CCC6)ccc5n4)nn3)c12` [Example 25, (cyclobutylmethyl)({2-[(4-{1-fluoroimidazo[1,5-a]pyridin-8-yl}-1H-1,2,3-triazol-1-yl)methyl]imidazo[1,2-a]pyridin-6-yl}methyl)amine], the IC50 at METTL3/14 was 15.8 nM; in the test on Caov-3 cells it was 2720 nM; in the test on KASUMI-1 cells, 4820 nM.

`FC12CC(CNCc3ccc4nc(Cn5cc(-c6cncc(N7CCOCC7)c6)nn5)cn4c3)(C1)C2` [Example 52, ({3-fluorobicyclo[1.1.1]pentan-1-yl}methyl)({[2-({4-[5-(morpholin-4-yl)pyridin-3-yl]-1H-1,2,3-triazol-1-yl}methyl)imidazo[1,2-a]pyridin-6-yl]methyl})amine]: the results for the IC50 against METTL3/14, in the test with Caov-3 cells and in the test on KASUMI-1 cells were 6 nM, 540 nM and 1610 nM, respectively.

For the molecule `N#Cc1ncc(N2CCOCC2)cc1-c1cn(Cc2cn3cc(CNCC45CC(F)(C4)C5)ccc3n2)nn1` [Example 51, 3-{1-[(6-{[({3-fluorobicyclo[1.1.1]pentan-1-yl}methyl)amino]methyl}imidazo[1,2-a]pyridin-2-yl)methyl]-1H-1,2,3-triazol-4-yl}-5-(morpholin-4-yl)pyridine-2-carbonitrile], the IC50 against METTL3/14 turned out to be 6 nM; with Caov-3 cells, 1330 nM; in the test with KASUMI-1 cells, 1860 nM.

On to `COc1cc(-c2cn(Cc3cn4cc(CN5CC6(CCC6)C5)ccc4n3)nn2)c2cncn2c1` [Example 30, 2-({2-[(4-{6-methoxyimidazo[1,5-a]pyridin-8-yl}-1H-1,2,3-triazol-1-yl)methyl]imidazo[1,2-a]pyridin-6-yl}methyl)-2-azaspiro[3.3]heptane], for which the IC50 on METTL3/14 came out at 6.1 nM; in the test on Caov-3 cells, 598 nM; in the test with KASUMI-1 cells, 2080 nM.

Turning to `COc1cc(-c2cn(Cc3cn4cc(CNCC5CCC5)ccc4n3)nn2)c2cncn2c1` [Example 22, (cyclobutylmethyl)({2-[(4-{6-methoxyimidazo[1,5-a]pyridin-8-yl}-1H-1,2,3-triazol-1-yl)methyl]imidazo[1,2-a]pyridin-6-yl}methyl)amine], the IC50 is 6.1 nM at METTL3/14, 305 nM in the test with Caov-3 cells and 1150 nM in the test with KASUMI-1 cells.

Consider `COc1cnc(C#N)c(-c2cn(Cc3cn4cc(CNCC56CC(F)(C5)C6)ccc4n3)nn2)c1` [Example 41, 3-{1-[(6-{[({3-fluorobicyclo[1.1.1]pentan-1-yl}methyl)amino]methyl}imidazo[1,2-a]pyridin-2-yl)methyl]-1H-1,2,3-triazol-4-yl}-5-methoxypyridine-2-carbonitrile], for which the IC50 on METTL3/14 came to 16 nM; in the test with Caov-3 cells it was 4070 nM; in the test with KASUMI-1 cells, 2660 nM.

Turning to `O=C(NCc1cn2cc(CNCC3CCC3)ccc2n1)c1cnc2[nH]ccc2n1` [Example 18, N-[(6-{[(cyclobutylmethyl)amino]methyl}imidazo[1,2-a]pyridin-2-yl)methyl]-5H-pyrrolo[2,3-b]pyrazine-2-carboxamide], the IC50 is 14.1 nM on METTL3/14 and 2790 nM in the test on Caov-3 cells.

With `COc1cc(-c2cn(Cc3cn4cc(CNCC56CC(F)(C5)C6)ccc4n3)nn2)c2cncn2c1` [Example 26, ({3-fluorobicyclo[1.1.1]pentan-1-yl}methyl)({2-[(4-{6-methoxyimidazo[1,5-a]pyridin-8-yl}-1H-1,2,3-triazol-1-yl)methyl]imidazo[1,2-a]pyridin-6-yl}methyl)amine], the IC50 was determined as 6.1 nM on METTL3/14, 110 nM with Caov-3 cells and 449 nM with KASUMI-1 cells.

Take `COc1ccncc1-c1cn(Cc2cn3cc(CNCC45CC(F)(C4)C5)ccc3n2)nn1` [Example 47, ({3-fluorobicyclo[1.1.1]pentan-1-yl}methyl)[(2-{[4-(4-methoxypyridin-3-yl)-1H-1,2,3-triazol-1-yl]methyl}imidazo[1,2-a]pyridin-6-yl)methyl]amine]: the IC50 against METTL3/14 was determined as 13 nM; with Caov-3 cells, 1380 nM; in the test with KASUMI-1 cells it was 4450 nM.

For the molecule `O=C(NCc1cn2cc(CNCC34CC(F)(C3)C4)ccc2n1)c1cc(=O)n2ccsc2n1` [Example 19, N-[(6-{[({3-fluorobicyclo[1.1.1]pentan-1-yl}methyl)amino]methyl}imidazo[1,2-a]pyridin-2-yl)methyl]-5-oxo-5H-[1,3]thiazolo[3,2-a]pyrimidine-7-carboxamide], the IC50 against METTL3/14 was found to be 6.1 nM; in the test with Caov-3 cells, 364 nM; in the test on KASUMI-1 cells, 1360 nM.

Turning to `c1cc(-c2cn(Cc3cn4cc(CNCC5CCC5)ccc4n3)nn2)c2nncn2c1` [Example 27, (cyclobutylmethyl)({2-[(4-{[1,2,4]triazolo[4,3-a]pyridin-8-yl}-1H-1,2,3-triazol-1-yl)methyl]imidazo[1,2-a]pyridin-6-yl}methyl)amine], the IC50 against METTL3/14 is 236 nM; with KASUMI-1 cells, 30000 nM.

Take `COc1cnc(C#N)c(-c2cn(Cc3cn4cc(CN5CCC(C)(C)CC5)ccc4n3)nn2)c1` [Example 39, 3-[1-({6-[(4,4-dimethylpiperidin-1-yl)methyl]imidazo[1,2-a]pyridin-2-yl}methyl)-1H-1,2,3-triazol-4-yl]-5-methoxypyridine-2-carbonitrile]: the IC50 turned out to be 5530 nM in the test on Caov-3 cells and 6210 nM in the test on KASUMI-1 cells.

With `c1cc(-c2cn(Cc3cn4cc(CN5CC6(CCC6)C5)ccc4n3)nn2)c2cncn2c1` [Example 29, 2-({2-[(4-{imidazo[1,5-a]pyridin-8-yl}-1H-1,2,3-triazol-1-yl)methyl]imidazo[1,2-a]pyridin-6-yl}methyl)-2-azaspiro[3.3]heptane], the IC50 at METTL3/14 came out at 6.5 nM; in the test on Caov-3 cells it was 473 nM; in the test on KASUMI-1 cells, 1570 nM.

With `c1cc(-c2cn(Cc3cn4cc(CNCC5CCC5)ccc4n3)nn2)c2cncn2c1` [Example 23, (cyclobutylmethyl)({2-[(4-{imidazo[1,5-a]pyridin-8-yl}-1H-1,2,3-triazol-1-yl)methyl]imidazo[1,2-a]pyridin-6-yl}methyl)amine], the IC50 against METTL3/14 worked out at 6.1 nM; in the test on Caov-3 cells it was 888 nM; in the test on KASUMI-1 cells, 2940 nM.

On to `COc1cc(-c2cn(Cc3cn4cc(CNCC56CC(C5)C6)ccc4n3)nn2)c2cncn2c1` [Example 28, ({bicyclo[1.1.1]pentan-1-yl}methyl)({2-[(4-{6-methoxyimidazo[1,5-a]pyridin-8-yl}-1H-1,2,3-triazol-1-yl)methyl]imidazo[1,2-a]pyridin-6-yl}methyl)amine], for which the IC50 at METTL3/14 turned out to be 6.1 nM; in the test on Caov-3 cells it was 102 nM; in the test on KASUMI-1 cells it was 316 nM.
